These results are taken from patent US20260242340A1, “COMPOUNDS AND METHODS FOR TREATING PROTEIN AGGREGATION DISEASES” (ACELOT, INC., priority 2023, published 2026).

The target of test [1] is toxic alpha-synuclein oligomers (Homo sapiens, UniProt P37840). Put plainly: Neuronal cell toxicity assay (MTT), alpha-synuclein oligomers. It counts as cell-based. The conditions noted are these: 10 μM compound; primary rat neurons; 100% = cells without alpha-synuclein oligomers, 0% = oligomers and DMSO. The procedure: (§1) Primary rat cortical and striatal neurons were prepared from foetuses' brain as previously described (Garcia et al., Diabetes, Obesity & Metabolism 2010, 12, 403-413; Roby et al., Food chemistry 2015, 171, 397-404; Colin et al., Biochimie 2016, 130, 178-187). Briefly, the embryos were extracted, brains were collected and dissected using a binocular magnifier. Embryonic cortical/striatal tissues were dissociated by a combination of enzymatic digestion and mechanical dissociation. The relative number of live cells in cell suspension was evaluated for each cortical and striatal neurons using Thoma cell counting chamber and Axio Scope A1 microscope (Carl Zeiss, Oberkochen, Germany). Dissociated neurons were plated (80,000 cells/well) in 48-well plates pre-coated with 15 μg/mL Poly-ornithine (Sigma), 1 μg/ml Laminin (Sigma). Cells were cultured in Neurobasal medium (Invitrogen, Paris, France) serum free of and supplemented with 2% (v/v) of B-27 Supplement (Invitrogen). […]
(§2) To induce neuronal toxicity, neurotoxin (oligomeric forms of Aβ, Tau and alpha-synuclein at 0.1-5 μM) were used. […] Cell viability was evaluated by a 3-(4,5-dimethylthiazol-2-yl)-2,5-diphenyl-2H-tetrazolium bromide (MTT) assay at 24-72 h post neurotoxin challenge. […] After complete solubilization of formazan, absorbance was recorded at 500 nm with a spectrophotometer (SpectraMax® i3x, Molecular Devices, San José, USA).

For another test, the system named is toxic tau oligomers. Put plainly: Neuronal cell toxicity assay (MTT), tau oligomers. It counts as cell-based. The conditions noted are these: primary rat neurons, 100% = cells without tau oligomers, 0% = tau oligomers and DMSO. Here is the method:
as §1, §2

In the case of `CC(=O)Nc1ccc2c(c1)CCN(CCc1cccc(Cl)c1)C2` [Compound 1], the “% rescue at 10 μM comopund from toxic alpha-synuclein oligomers” value in test [1] came to 24%.
For `CC(=O)Nc1ccc2c(c1)CCN(CCc1ccc(F)c(Cl)c1)C2` [Compound 2], the “% rescue at 10 μM compound from toxic tau oligomers” value in the test with toxic tau oligomers amounted to 33.7%.
